In US7732563B2, “Cloning, sequencing and expression of a gene encoding an eukaryotic amino acid racemase, and diagnostic, therapeutic, and vaccination applications of parasite and viral mitogens” (priority 1999, dated 2010):

Assays:
total spleen cells = test: In vitro proliferation assay of splenocytes (3H-thymidine uptake); format: cell-based, mouse; conditions: for mitogenic activity of rTcPA45 with cultures supplemented with increasing amounts of substrate: 3 mM to 50 mM substrate, dose-dependent, competitive inhibition; for cell proliferation of lymphocytes with substrate alone: 50 mM alone; for mitogenic activity of rTcPA45 after pre-incubation with inhibitor of proline racemase: 50 μg/ml rTcPA45 pre-incubated with 1 mM inhibitor; for 3H-thymidine uptake: after 48 h, ConA 10 μg/ml, LPS 5 μg/ml, BALB/c splenocytes 5×10^4 cells/well
Description: Briefly, freshly recovered splenocytes from 8 week old male Balb/c mice seeded at a concentration of 5×10^4 cells/well were incubated for 24, 48 and 72 h in 5% FCS RPMI-1640 medium. A 16 h ^3H-thymidine pulse at 1 μCi/well was performed before harvesting. ^3H-Thymidine uptake was determined in a beta-plate liquid scintillation counter (LKB-Wallac). All points were done in triplicate and the corresponding standard deviation calculated. For comparison, ^3H-thymidine uptake after 48 h in the presence of ConA (10 μg/ml) and LPS (5 μg/ml) was 32000 c.p.m. and 3500 c.p.m., respectively. T-cell depletion was performed by incubating freshly recovered spleen cells for 30 min at 37° C. in the presence of anti-Thy 1.2 monoclonal antibody (Cedarlane) and rabbit complement (Cedarlane). In order to rule out a possible mitogenic effect due to LPS contamination in samples, proliferation assays were also performed on freshly recovered splenocytes from the LPS non-responder mouse strain C3H/Hej. Same levels of proliferation were verified. Balb/c mice were purchased from Charles River, France. C3H/Hej mice were maintained in our animal facilities.
In vitro proliferation is accomplished using freshly recovered splenocytes from BALB/c mice seeded at a density of 5×10^4 cells/well and incubated for 24, 48 and 72 h with increasing concentrations of total parasite supernatants or recombinant TcPa45 protein or other mitogen (0.07-200 μg/ml) with 0.5 μg/ml of the HPLC fractions, or with the conventionally used mitogens concanavalin A (10 μg/ml) and lipopolysaccharide (5 μg/ml) in 5% FCS in RPMI-1640 complete medium. T-cell depletion is accomplished by incubating freshly recovered spleen cells for 30 min. at 37° C. in the presence of monoclonal antibodies against Thy 1.2 and rabbit complement (Cedarlane, Le Perray en Yvelines, France). Analysis of proliferative activity of total splenocytes (5×10^4 cells/well) in the presence of 50 μg/ml enzymatically active rTcPA45 or other mitogen is also compared with the proliferation obtained using the same amounts of rTcPA45 protein or other mitogen lacking racemase activity (by heating for 10 min. at […] or by long term storage at 4° C.). Inhibition of proliferation is obtained by adding to the splenocyte cultures 50 μg/ml rTcPA45 or other mitogen pre-incubated for 10 min. at 37° C. with 1 mM inhibitor, either specific (pyrrole-2-carboxylic acid) or nonspecific (iodoacetamide or iodoacetate). Competitive assays of proliferative activity by 50 μg/ml rtcPA45 or other mitogen are done by adding increasing concentrations of specific substrates i.e., proline racemase substrates (L- or D-proline) for the mitogen rTcPA45 ranging from 3 mM to 50 mM. Controls include the incubation of splenocytes (5×10^4 cells/well) with substrate alone, i.e., 50 mM L- or D-proline in RPMI medium alone for prline racemase. Cultures are collected after a 16-hour pulse or 1 μCi/well ^3H-thymidine uptake was determined in a beta-plate liquid scintillation counter (LKB-Wallac, Orsay, France). All data points are obtained in triplicate and the corresponding standard deviation is calculated.
5×10^5 naive spleen cells/well (96 well plate) were stimulated in vitro with different doses of rTcPA45 (ranging in FIG. 4b from 0.8 to 200 μg/ml final) for 24, 48 and 72 h, at 37° C., 5% CO2. Cultures were pulsed with ^3H-Thymidine (1 μCi/well) for 16-18 h before harvesting. ^3H-thymidine incorporation was obtained after counting using a beta-plate. Results present arithmetic means of c.p.m. (counts/minute) from 6 wells/dose of rTcPA45 or wells containing medium alone (+/−SD of the means). (FIG. 4b)

rTcPA45 proline racemase = target: T1, rTcPA45 proline racemase (Trypanosoma cruzi, UniProt Q4DA80); format: biochemical; conditions: 80 mM L-proline; inhibitors 6 mM to 100 mM
T1 construct: made in house; host or cells: E. coli (pET28b(+))
Description: To investigate the genomic organization and transcription of the Tc45 gene, Southern and Northern blot analyses were done. FIG. 4 depicts the results of characterization of rTcPA45 activities. FIG. 4, part a, is an 8% SDS-PAGE gel of rTcPA45 (Coomasie blue staining). Part b depicts the proliferative activity of total splenocytes (5×10^4 cells/well) in the presence of increasing concentrations of rTcPA45 (μg/ml). […] Reaction conditions were: 0.2 M Na-acetate/25 mM β-mercaptoethanol buffer, pH6, rTcPA45 (3 μg/ml), 30 min incubation at 37° C. in 500 μl. The reaction was stopped by incubating for 10 min at 80° C. […] Reactions were carried out for 30 min at 37° C. and stopped for 5 min at 80° C. All reagents and inhibitors were purchased from Sigma. The shift in optical rotation was measured in a Polarimeter 241 MC (Perkin Elmer).
3 μg of rTcPA45 was diluted in 500 μl of buffer (0.2M NaOAc, […] β-mercaptoethanol, pH6.0) containing different concentrations of the substrate (10-80 mM or L- or D-proline). (See FIG. 4c.) The reaction was incubated for 30-60 minutes at 37° C. in a water bath, followed by heat inactivation of the enzyme for 10 minutes at 80° C. Each sample is diluted to 1.5 ml with water and the mixture submitted to measurement of optical rotation using a polarimeter, at 365 nm. A sample without enzyme is used as a control. For optimal pH determination, buffer systems with NaOAc, phosphate, and Tris were used with pH ranging from 4.0-8.2. Curve of temperature was performed between 27° C. to 47° C.
The percent of racemization of different concentrations of L-proline, D-proline, L-hydroxy-proline and D-hydroxy-proline substrates was calculated by incubating a 500-μl mixture of 3 μg TcPA45 and 10-80 mM substrate in 0.2 M sodium acetate and 25 mM β-mercaptoethanol, pH 6, for 30 min at 37° C. The reaction was stopped by incubation for 10 min at 80° C. Water (1 ml) was then added, and the optical rotation was measured in polarimeter 241 MC (Perkin Elmer, Montignyle Bretonneux, France) at a wavelength of 365 nm, in a cell with a path length of 10 cm. The percent inhibition of racemization of 80 mM L-proline was determined in the presence of different concentrations of several specific and nonspecific inhibitors ranging in concentration from 6 mM to 100 mM. The percent racemization of 80 mM L-proline as a function of pH was determined using 0.2 M sodium acetate, potassium phosphate and Tris-HCl buffers containing 25 mM β-mercaptoethanol; reactions were incubated for 30 min at 37° C. as described above. All reagents and inhibitors were purchased from Sigma.

T1 sequence (Q4DA80 30-423): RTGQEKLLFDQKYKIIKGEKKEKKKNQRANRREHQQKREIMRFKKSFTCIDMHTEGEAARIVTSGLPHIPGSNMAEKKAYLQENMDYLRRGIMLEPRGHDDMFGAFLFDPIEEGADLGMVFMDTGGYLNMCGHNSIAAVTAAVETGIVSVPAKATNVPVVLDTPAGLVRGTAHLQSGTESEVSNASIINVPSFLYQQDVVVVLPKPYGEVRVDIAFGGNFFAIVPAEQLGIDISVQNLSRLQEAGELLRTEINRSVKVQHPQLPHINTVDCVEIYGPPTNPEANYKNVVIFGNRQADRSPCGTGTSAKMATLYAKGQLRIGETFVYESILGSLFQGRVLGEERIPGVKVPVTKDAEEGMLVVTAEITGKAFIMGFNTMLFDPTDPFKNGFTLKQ

O=C(O)[C@H]1CCCN1 [D-proline]
mitogenic activity of rTcPA45 with cultures supplemented with increasing amounts of substrate (total spleen cells): affected considerably
cell proliferation of lymphocytes with substrate alone (total spleen cells): no cell proliferation

O=C(O)[C@@H]1CCCN1 [L-proline]
mitogenic activity of rTcPA45 with cultures supplemented with increasing amounts of substrate (total spleen cells): affected considerably
cell proliferation of lymphocytes with substrate alone (total spleen cells): no cell proliferation

NC(=O)CI [iodoacetamide, reference compound]
inhibition of rTcPA45 enzymatic (racemase) activity (rTcPA45 proline racemase): inhibited to different extents
mitogenic activity of rTcPA45 after pre-incubation with inhibitor of proline racemase (total spleen cells): abolished

O=C(O)CI [iodoacetate, reference compound]
inhibition of rTcPA45 enzymatic (racemase) activity (rTcPA45 proline racemase): inhibited to different extents
mitogenic activity of rTcPA45 after pre-incubation with inhibitor of proline racemase (total spleen cells): abolished

O=C(O)/C=C\C(=O)O [maleic acid, reference compound]
inhibition of rTcPA45 enzymatic (racemase) activity (rTcPA45 proline racemase): inhibited to different extents

O=C(O)c1ccc[nH]1 [pyrrole-2-carboxylic acid, reference compound]
inhibition of rTcPA45 enzymatic (racemase) activity (rTcPA45 proline racemase): inhibited to different extents
mitogenic activity of rTcPA45 after pre-incubation with inhibitor of proline racemase (total spleen cells): abolished

concanavalin A [ConA]
3H-thymidine uptake (total spleen cells): 32000 c.p.m.
3H-thymidine uptake (total spleen cells; listed as concavalin A): 32,000 c.p.m.

lipopolysaccharide [LPS]
3H-thymidine uptake (total spleen cells): 3500 c.p.m.
3H-thymidine uptake (total spleen cells; listed as lipopolysaccharide): 3,500 c.p.m.
